The results in this text go back to ChEMBL document CHEMBL1156829 (Proc Natl Acad Sci U S A, 2008).

The subject of data set [1] is Plasmodium falciparum. The data set can be described thus: NOVARTIS: Inhibition of Plasmodium falciparum W2 (drug-resistant) proliferation in erythrocyte-based infection assay. The data set is classed as functional, organism-based. The settings on record: Plasmodium falciparum, W2; read-out: EC50.
Data set [2] in a line: NOVARTIS: Cytotoxicity against human hepatocellular carcinoma cell line (Huh7). The data set is classed as toxicity, cell-based, Huh-7. The settings on record: Huh7 cells (hepatocellular carcinoma cell line).
Data set [3] has as its system Plasmodium falciparum. The data set can be described thus: NOVARTIS: Inhibition of Plasmodium falciparum 3D7 (drug-susceptible) proliferation in erythrocyte-based infection assay. The data set is classed as functional, organism-based. The settings on record: Plasmodium falciparum, 3D7.

A word on the EC50: it is the concentration that produces a half-maximal response. The term CC50 denotes the concentration that lowers cell viability or growth by half. Low values mean harm at low concentration, high ones better tolerance by the cells. Consider `CCOC(=O)c1c(NC(=O)CSc2nnc(CNC(=O)c3cccc(C)c3)n2Cc2ccccc2)sc2c1CCCC2`, for which the EC50 in the data set on Plasmodium falciparum [1] was more than 1460 nM; in the data set on Plasmodium falciparum [3] it was more than 1090 nM. In addition, in data set [2], the CC50 was more than 14000 nM.
On the same counts, the results for `COc1cc(CNc2cc(OCCOc3ccc(Cl)cc3)cc(C(=O)NC3CCN(Cc4ccccc4)CC3)c2)ccc1OCc1ccccc1` are more than 1250 nM, 902 nM and more than 12100 nM.
The like results for `O=S(=O)(c1ccccc1)N1CCN(CC2CNCCO2)CC1` (stereo not drawn) were, in that order, 332 nM, 767 nM and 3220 nM.
On the same counts, the results for `O=C(Nc1nccs1)c1cc(-c2cccnc2)nc2ccc(Br)cc12` are more than 10400 nM, 1080 nM and more than 100000 nM.
Turning to `COc1cc(C=NNc2nc3nonc3nc2Nc2ccc(Cl)cc2)ccc1O`, the EC50 in the data set with Plasmodium falciparum [1] was 1030 nM; with Plasmodium falciparum [3], more than 1250 nM. In data set [2], the CC50 is more than 10000 nM.
The like results for `C/C=C1/C[C@H]2[C@@H](OC)Nc3cc(O)c(OC)cc3C(=O)N2C1` were, in that order, 875 nM, 1030 nM and 8490 nM.
On the same counts, the results for `CCc1c(C)nc(SCC(=O)NNC(C)=O)nc1O` are more than 1030 nM, more than 1250 nM and more than 10000 nM.
On the same counts, the results for `O=C(NCc1ccccc1)c1cnc(NCCCn2ccnc2)nc1NCC1CCCCC1` are 1040 nM, 311 nM and more than 10000 nM.
As to `O=C(CSc1nc2ccccc2[nH]1)Nc1ccc2c(c1)OCO2`, the EC50 is more than 1040 nM in the data set with Plasmodium falciparum [1] and more than 1250 nM with Plasmodium falciparum [3]. The compound also had a CC50 in data set [2] of more than 10000 nM.
The like results for `Fc1ccccc1Nc1nc(NCc2ccccc2)c2ccccc2n1` were, in that order, 918 nM, 463 nM and 8860 nM.
Regarding `CCCn1c(SCCNC(=O)NCC)nc(-c2ccccc2)c1-c1ccccc1`, the EC50 is more than 1030 nM in the data set on Plasmodium falciparum [1] and more than 1400 nM in the data set on Plasmodium falciparum [3]. The compound further yielded a CC50 in data set [2] of more than 10000 nM.
On the same counts, the results for `CCOc1ccc(-n2nc(C(=O)NCCCN(C)Cc3ccccc3)c3ccccc3c2=O)cc1` are 10300 nM, more than 11200 nM and more than 100000 nM.
The like results for `CCCSc1nc(N)c(NC(=O)c2ccco2)c(=O)[nH]1` were, in that order, more than 1020 nM, more than 361 nM and more than 10000 nM.
The like results for `O=C1C(Sc2nnc[nH]2)=CC(=NS(=O)(=O)c2cccs2)c2ccccc21` were, in that order, 707 nM, 1530 nM and 6910 nM.
As to `c1ccc(-c2ccc(CNc3ccc4cn[nH]c4c3)cc2)cc1`, the EC50 in the data set with Plasmodium falciparum [1] is 1040 nM; in the data set on Plasmodium falciparum [3] it was more than 1250 nM. Further, the CC50 in data set [2] was more than 10000 nM.
On the same counts, the results for `CCOC(=O)C1=C(C)N=c2sc(=Cc3ccc(I)o3)c(=O)n2C1c1ccccc1Cl` (stereo not drawn) are 570 nM, 1330 nM and more than 5490 nM.
For the compound `COc1ccc(C2C(C(=O)Nc3cc(C)on3)c3ccccc3C(=O)N2C2CCCCC2)cc1` (stereo not drawn), the EC50 was more than 1030 nM with Plasmodium falciparum [1] and 895 nM in the data set on Plasmodium falciparum [3]. Besides, in data set [2], the CC50 was more than 10000 nM.
As to `CCOc1cc(C(Nc2cc(C)ccn2)c2ccc3cccnc3c2O)ccc1OCc1ccccc1` (stereo not drawn), the EC50 in the data set with Plasmodium falciparum [1] is 1030 nM; with Plasmodium falciparum [3], more than 1340 nM. The compound also came in with a CC50 in data set [2] of more than 10000 nM.
Regarding `C=CCNC(=O)c1ccc2c(c1)N=C(/C=C/c1ccccc1)N(CCc1cccc(OC)c1)C2`, the values for the EC50 with Plasmodium falciparum [1] and in the data set on Plasmodium falciparum [3] were 1040 nM and 1340 nM, respectively. For the same compound, the CC50 in data set [2] was more than 10000 nM.
On the same counts, the results for `CCC(/C=C1\Sc2ccc(OC)cc2N1CCCS(=O)(=O)O)=C\c1sc2ccc(OC)cc2[n+]1CCCS(=O)(=O)O` are 1040 nM, 473 nM and 10000 nM.
For the compound `COc1cccc(OC)c1C(=O)Nn1c(-c2cccc(C)c2)nc2ccccc2c1=O`, the values for the EC50 in the data set with Plasmodium falciparum [1] and in the data set with Plasmodium falciparum [3] were more than 1030 nM and more than 1250 nM, respectively. Also, the CC50 in data set [2] was more than 10000 nM.
